In patent US11118208B2, “Methods for modulating protein galactosylation profiles of recombinant proteins using peracetyl galactose” (ARES TRADING S.A., priority 2016, dated 2021):
“And” between values parts separate entries of the source, which are not always exact repeats. Equal entries are not always repeated.

Tests used:
Type in all cases: cell-based, Chinese hamster
[1] = test system: mAb1 cells (CHO-S cells expressing IgG1 mAb1); test: Fed-batch culture of mAb1 cells in deepwell plates (DWP): viable cell density, viability, titer
Method: (§1) First assays were performed with an antibody produced in a CHO cell line: CHO-S cells expressing IgG1 mAb1, herein “Cells mAb1” or “mAb1 cells”. “mAb1” is a fully human monoclonal antibody directed against a soluble protein. Its isoelectric point (pI) is about 8.20-8.30.
(§2) Cells expressing mAb1 were inoculated at 0.3×10^6 cells per millilitre (mL), whereas Cells expressing mAb2 were inoculated at 0.2×10^6 cells per millilitre (mL).
(§3) For examples 1-3: A serum-free chemically defined culture medium was used. It was used as it is, or it was supplemented with α- or β-2-F-peracetyl galactose (herein α- or β-2F-pGal; Biosynth & AX Molecules) at different concentrations (0-200 μM before seeding). The concentrations indicated on FIGS. 1, 2, 3 and 4 are the concentrations in α- or β-2F-pGal in the culture medium at day 0, just before the inoculation. The culture medium was fed, on a regular basis, with a chemically defined feed medium, as well as with glucose in order to keep said glucose level in the range of >0 to about 8 g/L (feeds are done at days 3, 5, 7, 10 and 12).
(§4) The cultures were performed in deepwell plates (DWP) with a working volume of 450 μL. They were incubated at 36.5° C., 5% de CO2, 90% humidity and shaken at 320 rpm. Each of the fed-batch culture lasted 14 days. It is well known that experiments in DWP are artificial, although they allow a first screening of culture conditions. In order to confirm that the results obtained in DWP were reproducible at higher scale, similar experiments were also run in TubeSpin® (also called herein shake tubes or ST), with a working volume of 30 mL cell culture (same culture condition than for deepwell plates).
For DWP experiments, viable cell density and viability were measured with the Guava easyCyte® flow cytometer. Antibody titers were measured with the fortéBIO Octet®.
(§5) The cells were cultivated and the results analysed as disclosed in the material and method section. It is noted that the controls (or control conditions) according to the present invention correspond to cells grown without peracetyl galactose.

[2] = test system: galactosylation of mAb1 antibody (mAb1 cells); test: Glycosylation profile of mAb1 produced in DWP (CGE-LIF)
Method: as §1, §3, §4
(§6) Glycosylation profiles were established by capillary gel electrophoresis with laser-induced fluorescence (CGE-LIF; for DWP and for Shake tubes experiments) or by Ultra Performance Liquid Chromatography-2-amino-benzamide labelling technique (2AB-UPLC; for Shake tubes experiments). Groups of glycans were defined as thereafter in Table 3.
as §5

[3] = test system: mAb1 cells (CHO-S cells expressing IgG1 mAb1); test: Fed-batch culture of mAb1 cells in TubeSpin (shake tubes): viable cell density, viability, titer
Method: as §1, §2, §3, §4
(§7) For TubeSpin® experiments, viable cell density and viability were measured with the ViCell®. Antibody titers were measured using Biacore®.

[4] = test system: galactosylation of mAb1 antibody (mAb1 cells); test: Glycosylation profile of mAb1 produced in TubeSpin (CGE-LIF); conditions: for monogalactosylated form changed by (Example 2.2) / total level of galactosylation decreased by (Example 2.2): shake tubes, CGE-LIF
Method: as §1, §3, §4, §6

[5] = test system: mAb2 cells (CHO-Ki cells expressing IgG1 mAb2); test: Fed-batch culture of mAb2 cells in TubeSpin: viable cell density, viability, titer
Method: (§8) Additional assays were performed with another antibody also produced in another CHO cell line: CHO-Ki cells expressing IgG1 mAb2, herein “Cells mAb2” or “mAb2 cells”. “mAb2” is a humanized monoclonal antibody directed against a receptor found on the cell membrane. Its isoelectric point (pI) is about 9.30.
as §2, §3, §4, §7

[6] = test system: galactosylation of mAb2 antibody (mAb2 cells); test: Glycosylation profile of mAb2 produced in TubeSpin (2AB-UPLC)
Method: as §8, §3, §4, §6

For `CC(=O)OC[C@H]1OC(OC(C)=O)[C@H](F)[C@@H](OC(C)=O)[C@H]1OC(C)=O` (stereo in doubt) [α-2F-pGal, α/β-D-galactopyranose, 2-deoxy-2-fluoro-,1,3,4,6-tetraacetate], the “decrease of titers comparing to control” value ([1]; concentration higher than 60 μM) was “about 1.2 factor”, the “impact on protein titre” value ([1]; concentrations between 30 and 60) was “no impact on protein titre” and the “impact on cell growth” value ([1]; concentrations of about 60 μM and higher) was “negative impact on cell growth”. For the same compound, the “impact on cell growth until the end of culture” value ([1]; concentrations up to 30 μM in medium) was “no impact on cell growth”, the “protein titer compared to the control” value ([1]; media concentration up to 60 μM, day 10 and day 14) was “stays above the protein titer of the control” and the “impact on cell density, cell viability and protein titer” value ([1]; media concentrations below 30 μM) was “do not impact”. For the same compound, the “G1F absolute change compared to the control” value (“G1F absolute change” below) ([2]; 30 μM) was 1.1%, the “G2F absolute change compared to the control” value (shortened to “G2F absolute change”) ([2]; 30 μM) was 0.2% and the “absolute change in galactosylated N-oligosaccharide compared to the control” value ([2]; 30 μM) was 1.3%. For the same compound, the “relative decrease of galactosylated N-oligosaccharides compared to control” value (“relative decrease” for short) ([2]; 30 μM) was 17%, the “galactosylated N-oligosaccharides of the protein” value ([2]; 30 μM in medium) was 8.3% and the “G1F absolute change” value ([2]; 60 μM) was 2.5%. For the same compound, the “G2F absolute change” value ([2]; 60 μM) was 0.3%, the “absolute change in galactosylated N-oligosaccharide compared to the control” value ([2]; 60 μM) was 2.8% and the “relative decrease” value ([2]; 60 μM) was 32%. The “galactosylated N-oligosaccharides of the protein” value ([2]; 60 μM in medium) was 6.8%, the “G1F absolute change” value ([2]; 120 μM) was 3.1% and the “G2F absolute change” value ([2]; 120 μM) was 0.35%. The “absolute change in galactosylated N-oligosaccharide compared to the control” value ([2]; 120 μM) was 3.5%, the “relative decrease” value ([2]; 120 μM) was 40% and the “galactosylated N-oligosaccharides of the protein” value ([2]; 120 μM in medium) was 6.0%. For the same compound, the “G1F absolute change” value ([2]; 200 μM) was 4.4%, the “G2F absolute change” value ([2]; 200 μM) was 0.4% and the “absolute change in galactosylated N-oligosaccharide compared to the control” value ([2]; 200 μM) was 4.8%. For the same compound, the “relative decrease” value ([2]; 200 μM) was 52%, the “galactosylated N-oligosaccharides of the protein” value ([2]; 200 μM in medium) was 4.8% and the “inhibition effect on galactosylation” value ([2]; below 30) was “neither α- or β-2F-pGal does have a significant inhibition effect on galactosylation”. For the same compound, the “inhibition effect on galactosylation” value ([2]; concentrations higher than 30 μM) was “a significant inhibition effect is observed”, the “product titer at the end of the culture (day 14)” value (“product titer at the end” below) ([3]; 30 μM, shake tubes) was 2050 mg/L and the “product titer at the end” value ([3]; 60 μM, shake tubes, listed as α-2F-p-galactose) was 2130 mg/L. The “product titer at the end” value ([3]; 90 μM, shake tubes) was 2225 mg/L, the “growth inhibitory effect in the first part of the culture” value ([3]; 30, 60 and 90 μM, shake tubes) was “no growth inhibitory effect” and the “cell densities compared to control from day 10 until the end of the culture” value ([3]; 30 and 90 μM, shake tubes) was “slightly lower”. The “impact on cell growth or protein titer until the end of culture” value ([3]; any one of 30, 60 and 90 μM, TubeSpin) was “no negative impact on cell growth or protein titer”, the “effect on cell culture performance” value ([3]; between 0 and 90 μM α-2F-p-galactose, 60 μM β-2F-p-galactose, shake tubes) was “No detrimental effect” and the “protein titer compared to the control at culture days 5, 7, 10, 12 and 14” value ([3]; α 30-90 μM, β 60 μM, shake tubes, listed as α-2F-p-galactose) was “comparable at all time points”. The “G1F absolute change” value ([4]; 30 μM, TubeSpin) was 1.9%, the “G2F absolute change” value ([4]; 30 μM, TubeSpin) was 0.11% and the “relative decrease” value ([4]; 30 μM, TubeSpin) was “about 16%”. The “monogalactosylated form changed by (Example 2.2)” value (“monogalactosylated form changed” below) ([4]; 30 μM) was −1.9%, the “total level of galactosylation decreased by (Example 2.2)” value ([4]; 30 μM) was 2.0% and the “G1F absolute change” value ([4]; 60 μM, TubeSpin) was 4.3%. For the same compound, the “G2F absolute change” value ([4]; 60 μM, TubeSpin) was 0.27%, the “absolute change of galactosylated N-oligosaccharides compared to the control” value ([4]; 60 μM, TubeSpin) was 4.61% and ~4.5% and the “relative decrease” value ([4]; 60 μM, TubeSpin) was about 37%. The “total level of galactosylation decreased by (Example 2.2)” value ([4]; 60 μM) was 4.6%, the “monogalactosylated form changed” value ([4]; 60 μM, listed as α-2F-peracetyl-galactose) was −4.3% and the “G1F absolute change” value ([4]; 90 μM, TubeSpin) was 4.3%. For the same compound, the “G2F absolute change” value ([4]; 90 μM, TubeSpin) was 0.33%, the “relative decrease” value ([4]; 90 μM, TubeSpin) was about 36% and the “monogalactosylated form changed” value ([4]; 90 μM) was −4.3%. For the same compound, the “total level of galactosylation decreased by (Example 2.2)” value ([4]; 90 μM) was −4.5%, the “titer at day 7” value ([5]; 30 μM) was about 720 mg/L and the “titer at day 14” value ([5]; 30 μM) was 3400 to 3420 mg/L. The “titer at day 7” value ([5]; 60 μM) was about 720 mg/L, the “titer at day 14” value ([5]; 60 μM) was 3400 to 3420 mg/L and the “titer at day 7” value ([5]; 90 μM) was “about 670 mg/L”. The “titer at day 14” value ([5]; 90 μM) was about 3200 mg/L, the “peak viable cell density” value ([5]; 90 μM, shake tubes) was 10.0 ×106 viable cells/mL and the productivity ([5]; 30 and 60 μM) was “globally unchanged”. For the same compound, the “overall viable cell densities compared to the control” value ([5]; 30 and 60 μM, shake tubes) was “comparable to the control”, the “cell viability at day 7” value ([5]; entire supplement concentration range) was “about 97%” and the “viabilities compared to the control condition” value ([5]; entire supplement concentration range (30-90 μM)) was “comparable to the control condition”. For the same compound, the “effect on the overall fucosylated species” value [6] was “+0.5%”, the “FA2G1 decrease (absolute change)” value ([6]; 30 μM) was −0.85% and the “change of the FA2G2 abundance” value ([6]; 30 μM) was −0.09%. The “reduction of galactosylation (absolute change)” value (“reduction … (absolute change)” for short) ([6]; 30 μM) was −0.95%, the “FA2G1 decrease (absolute change)” value ([6]; 60 μM) was −1.85% and the “change of the FA2G2 abundance” value ([6]; 60 μM) was −0.19%. For the same compound, the “reduction … (absolute change)” value ([6]; 60 μM) was −2.05%, the “FA2G1 decrease (absolute change)” value ([6]; 90 μM) was −1.2% and the “change of the FA2G2 abundance” value ([6]; 90 μM) was −0.19%. The “reduction … (absolute change)” value ([6]; 90 μM) was −1.4%.
